This note sets out measurements from publication PMC7026418, “The kinase polypharmacology landscape of clinical PARP inhibitors” (Scientific Reports, 2020).

SMILES strings stand for the structures. Read-outs that look alike come from different tables or passages of the source.

Some targets named below: EGFR(L747-T751del,Sins) (Homo sapiens, UniProt P00533, DEL747-750/T751S); SRPK1 (Homo sapiens, UniProt Q96SB4); EGFR(L858R) (Homo sapiens, UniProt P00533, L858R); EGFR(G719S) (Homo sapiens, UniProt P00533, G719S); INSRR (Homo sapiens, UniProt P14616); PIM1 (Homo sapiens, UniProt P11309).
Holding throughout (experiment): biochemical
Holding throughout (set-up): DiscoveRx KINOMEscan active site-directed competition binding; percent of control kinase bound to immobilised ligand

For another experiment, the target named is T1, EPHA1 (Homo sapiens, UniProt P21709).
T1 sequence (P21709 1-976): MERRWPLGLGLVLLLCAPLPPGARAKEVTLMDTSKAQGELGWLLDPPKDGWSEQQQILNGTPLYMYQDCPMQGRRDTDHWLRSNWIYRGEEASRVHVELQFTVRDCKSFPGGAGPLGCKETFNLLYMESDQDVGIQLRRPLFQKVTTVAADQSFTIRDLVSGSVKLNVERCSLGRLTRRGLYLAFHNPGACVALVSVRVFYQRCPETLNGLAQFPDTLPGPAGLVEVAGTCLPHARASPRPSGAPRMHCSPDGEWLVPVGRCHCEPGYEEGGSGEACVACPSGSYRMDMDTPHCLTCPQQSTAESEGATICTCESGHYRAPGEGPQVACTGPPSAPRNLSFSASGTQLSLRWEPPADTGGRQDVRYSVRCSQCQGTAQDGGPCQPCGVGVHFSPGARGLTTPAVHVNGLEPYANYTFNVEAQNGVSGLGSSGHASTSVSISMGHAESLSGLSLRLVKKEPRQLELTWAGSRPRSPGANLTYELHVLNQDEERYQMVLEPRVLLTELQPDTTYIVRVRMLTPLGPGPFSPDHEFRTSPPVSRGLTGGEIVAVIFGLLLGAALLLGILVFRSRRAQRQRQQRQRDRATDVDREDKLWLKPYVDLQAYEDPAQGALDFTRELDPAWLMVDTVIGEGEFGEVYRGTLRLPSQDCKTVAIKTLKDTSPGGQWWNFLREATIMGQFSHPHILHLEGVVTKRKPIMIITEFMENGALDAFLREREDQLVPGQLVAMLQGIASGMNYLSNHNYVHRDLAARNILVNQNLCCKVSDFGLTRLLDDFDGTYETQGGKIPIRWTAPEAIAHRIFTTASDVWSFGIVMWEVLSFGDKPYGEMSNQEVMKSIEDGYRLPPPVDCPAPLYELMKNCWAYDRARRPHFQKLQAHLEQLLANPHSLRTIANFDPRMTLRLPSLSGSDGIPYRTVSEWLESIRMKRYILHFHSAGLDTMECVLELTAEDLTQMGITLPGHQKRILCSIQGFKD

The next experiment has as its target T2, CDC2L2 (Homo sapiens, UniProt Q9UQ88).
T2 construct: gene CDK11A
T2 sequence (Q9UQ88 1-783): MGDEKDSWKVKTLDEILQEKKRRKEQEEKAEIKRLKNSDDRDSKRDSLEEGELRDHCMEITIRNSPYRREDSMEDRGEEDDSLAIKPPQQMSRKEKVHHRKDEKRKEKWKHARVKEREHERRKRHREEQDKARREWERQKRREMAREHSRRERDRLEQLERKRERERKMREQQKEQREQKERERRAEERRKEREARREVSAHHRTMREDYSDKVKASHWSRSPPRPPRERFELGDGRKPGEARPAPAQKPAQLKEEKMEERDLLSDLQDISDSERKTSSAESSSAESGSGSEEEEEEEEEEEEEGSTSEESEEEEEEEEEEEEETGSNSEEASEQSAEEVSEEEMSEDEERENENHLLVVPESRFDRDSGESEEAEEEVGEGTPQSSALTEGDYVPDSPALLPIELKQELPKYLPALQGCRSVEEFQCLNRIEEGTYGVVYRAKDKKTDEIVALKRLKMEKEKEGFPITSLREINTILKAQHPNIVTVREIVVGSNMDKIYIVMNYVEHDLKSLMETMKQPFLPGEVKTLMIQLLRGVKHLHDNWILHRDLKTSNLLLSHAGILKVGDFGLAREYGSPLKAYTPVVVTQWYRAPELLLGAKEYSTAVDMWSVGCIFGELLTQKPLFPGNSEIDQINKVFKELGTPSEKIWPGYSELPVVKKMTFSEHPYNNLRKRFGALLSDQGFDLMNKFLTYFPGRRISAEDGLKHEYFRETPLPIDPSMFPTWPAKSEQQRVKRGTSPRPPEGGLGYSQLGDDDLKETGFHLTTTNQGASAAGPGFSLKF

Experiment [1] deals with T3, JAK2(JH1domain-catalytic) (Homo sapiens, UniProt O60674).
T3 construct: JH1domain-catalytic

The target in the next experiment is T4, CDK4-cyclinD1 (Homo sapiens, UniProt P11802).
T4 construct: cyclinD1

The target of a further experiment is T5, VEGFR2 (Homo sapiens, UniProt P35968).
T5 construct: gene KDR

The mark [2] stands for this setting: read-out: Niraparib (MK-4827) / %Ctrl @ 10000nM.
[3] abbreviates: read-out: Talazoparib (BMN 673) / %Ctrl @ 10000nM.
Where [4] appears, read: read-out: Rucaparib / %Ctrl @ 10000nM, binding competition, % of control.
Where [5] appears, read: read-out: Olaparib / %Ctrl @ 10000nM.

T4 sequence (P11802 whole entry): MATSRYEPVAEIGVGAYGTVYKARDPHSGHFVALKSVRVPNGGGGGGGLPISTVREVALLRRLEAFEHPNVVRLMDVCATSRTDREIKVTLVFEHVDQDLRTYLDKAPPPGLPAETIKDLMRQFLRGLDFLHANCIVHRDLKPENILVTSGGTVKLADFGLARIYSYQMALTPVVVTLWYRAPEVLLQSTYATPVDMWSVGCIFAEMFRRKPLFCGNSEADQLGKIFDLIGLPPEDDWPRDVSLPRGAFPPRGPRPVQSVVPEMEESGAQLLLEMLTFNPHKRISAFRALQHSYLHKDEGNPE
T4 sequence (P24385 whole entry partner): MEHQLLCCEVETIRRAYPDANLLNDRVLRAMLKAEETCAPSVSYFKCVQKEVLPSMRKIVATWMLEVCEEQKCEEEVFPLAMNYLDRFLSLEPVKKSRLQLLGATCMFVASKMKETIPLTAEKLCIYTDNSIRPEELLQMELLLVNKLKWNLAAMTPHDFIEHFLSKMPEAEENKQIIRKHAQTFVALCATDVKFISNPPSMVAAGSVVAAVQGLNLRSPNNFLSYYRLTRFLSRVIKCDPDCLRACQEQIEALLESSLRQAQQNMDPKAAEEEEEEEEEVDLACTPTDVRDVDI
T3 sequence (O60674 whole entry): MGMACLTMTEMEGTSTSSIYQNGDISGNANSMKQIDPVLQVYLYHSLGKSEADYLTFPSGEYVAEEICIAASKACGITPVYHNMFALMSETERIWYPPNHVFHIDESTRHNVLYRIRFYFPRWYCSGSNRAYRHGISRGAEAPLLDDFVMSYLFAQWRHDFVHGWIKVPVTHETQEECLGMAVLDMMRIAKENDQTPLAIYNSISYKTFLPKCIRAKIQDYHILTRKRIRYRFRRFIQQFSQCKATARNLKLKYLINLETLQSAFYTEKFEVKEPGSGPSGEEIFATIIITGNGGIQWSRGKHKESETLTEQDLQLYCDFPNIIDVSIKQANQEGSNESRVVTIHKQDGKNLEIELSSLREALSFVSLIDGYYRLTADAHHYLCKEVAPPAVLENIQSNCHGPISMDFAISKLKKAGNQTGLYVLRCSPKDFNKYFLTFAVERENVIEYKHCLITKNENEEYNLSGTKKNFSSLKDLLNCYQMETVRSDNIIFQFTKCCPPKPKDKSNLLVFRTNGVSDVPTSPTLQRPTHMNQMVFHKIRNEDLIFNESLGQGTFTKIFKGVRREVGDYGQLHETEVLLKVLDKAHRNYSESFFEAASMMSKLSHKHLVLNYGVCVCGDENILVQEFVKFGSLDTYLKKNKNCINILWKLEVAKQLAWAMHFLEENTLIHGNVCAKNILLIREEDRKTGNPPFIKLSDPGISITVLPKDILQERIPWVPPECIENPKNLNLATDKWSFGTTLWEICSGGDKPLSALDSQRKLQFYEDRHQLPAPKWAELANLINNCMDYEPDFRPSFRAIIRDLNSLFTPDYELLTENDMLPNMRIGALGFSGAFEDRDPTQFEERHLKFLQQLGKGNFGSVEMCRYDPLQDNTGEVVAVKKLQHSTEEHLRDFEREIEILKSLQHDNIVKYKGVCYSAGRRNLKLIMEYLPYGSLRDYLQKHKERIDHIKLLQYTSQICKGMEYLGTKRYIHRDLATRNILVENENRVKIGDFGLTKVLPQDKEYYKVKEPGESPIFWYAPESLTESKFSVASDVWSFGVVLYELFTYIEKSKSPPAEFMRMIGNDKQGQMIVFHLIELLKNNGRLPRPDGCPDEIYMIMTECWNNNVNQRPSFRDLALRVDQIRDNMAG
T5 sequence (P35968 whole entry): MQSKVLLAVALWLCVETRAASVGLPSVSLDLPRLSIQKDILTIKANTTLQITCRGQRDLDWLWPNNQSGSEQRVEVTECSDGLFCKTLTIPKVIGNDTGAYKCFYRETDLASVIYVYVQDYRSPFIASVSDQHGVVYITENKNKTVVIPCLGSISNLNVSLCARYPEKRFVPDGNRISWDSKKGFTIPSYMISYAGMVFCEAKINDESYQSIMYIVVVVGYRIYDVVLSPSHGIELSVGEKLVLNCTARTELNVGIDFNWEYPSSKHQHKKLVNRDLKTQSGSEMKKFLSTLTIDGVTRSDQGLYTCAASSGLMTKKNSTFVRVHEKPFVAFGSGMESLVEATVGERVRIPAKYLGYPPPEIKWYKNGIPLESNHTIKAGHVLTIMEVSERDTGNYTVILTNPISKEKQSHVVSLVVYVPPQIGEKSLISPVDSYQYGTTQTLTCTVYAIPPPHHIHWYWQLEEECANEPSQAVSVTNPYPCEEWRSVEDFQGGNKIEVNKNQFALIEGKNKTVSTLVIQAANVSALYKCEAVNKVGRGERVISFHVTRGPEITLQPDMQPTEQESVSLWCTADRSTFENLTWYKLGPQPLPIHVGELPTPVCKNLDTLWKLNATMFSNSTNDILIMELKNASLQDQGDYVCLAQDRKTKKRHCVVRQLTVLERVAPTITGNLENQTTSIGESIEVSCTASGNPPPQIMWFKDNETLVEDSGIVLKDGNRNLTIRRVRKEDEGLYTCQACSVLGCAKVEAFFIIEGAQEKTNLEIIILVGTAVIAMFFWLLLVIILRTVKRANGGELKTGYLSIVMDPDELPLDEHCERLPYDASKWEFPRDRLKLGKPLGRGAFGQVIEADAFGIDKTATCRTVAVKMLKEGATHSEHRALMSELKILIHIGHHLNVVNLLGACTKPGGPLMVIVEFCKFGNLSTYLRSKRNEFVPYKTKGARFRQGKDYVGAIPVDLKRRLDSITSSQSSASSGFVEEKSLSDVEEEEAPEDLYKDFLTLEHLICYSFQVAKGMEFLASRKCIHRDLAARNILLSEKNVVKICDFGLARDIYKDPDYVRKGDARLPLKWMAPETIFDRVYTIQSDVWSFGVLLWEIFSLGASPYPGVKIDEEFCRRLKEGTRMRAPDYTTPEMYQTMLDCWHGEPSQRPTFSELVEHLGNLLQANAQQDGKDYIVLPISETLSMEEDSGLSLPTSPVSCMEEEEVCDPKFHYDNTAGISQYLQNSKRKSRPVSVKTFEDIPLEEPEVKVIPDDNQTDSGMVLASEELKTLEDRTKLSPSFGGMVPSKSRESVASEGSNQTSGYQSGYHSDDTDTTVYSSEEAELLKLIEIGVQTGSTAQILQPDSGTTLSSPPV
Chain of SRPK1 (Q96SB4 whole entry): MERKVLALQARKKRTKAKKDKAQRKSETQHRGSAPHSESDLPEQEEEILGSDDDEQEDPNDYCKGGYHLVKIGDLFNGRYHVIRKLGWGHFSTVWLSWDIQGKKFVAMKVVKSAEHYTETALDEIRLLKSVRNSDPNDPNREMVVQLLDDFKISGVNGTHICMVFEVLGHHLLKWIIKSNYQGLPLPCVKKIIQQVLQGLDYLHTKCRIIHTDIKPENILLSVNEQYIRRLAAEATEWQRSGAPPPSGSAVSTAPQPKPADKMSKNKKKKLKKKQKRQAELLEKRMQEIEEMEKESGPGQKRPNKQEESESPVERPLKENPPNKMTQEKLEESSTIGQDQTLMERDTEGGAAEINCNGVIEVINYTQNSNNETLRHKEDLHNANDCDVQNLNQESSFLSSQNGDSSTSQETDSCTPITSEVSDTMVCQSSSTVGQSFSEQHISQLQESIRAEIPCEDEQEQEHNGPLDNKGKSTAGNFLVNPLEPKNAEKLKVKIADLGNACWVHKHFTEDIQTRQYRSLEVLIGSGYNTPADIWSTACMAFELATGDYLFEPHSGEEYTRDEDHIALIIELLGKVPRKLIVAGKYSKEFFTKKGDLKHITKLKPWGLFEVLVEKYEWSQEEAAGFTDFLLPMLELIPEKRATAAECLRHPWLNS
Chain of EGFR(L858R) (P00533 whole entry L858R): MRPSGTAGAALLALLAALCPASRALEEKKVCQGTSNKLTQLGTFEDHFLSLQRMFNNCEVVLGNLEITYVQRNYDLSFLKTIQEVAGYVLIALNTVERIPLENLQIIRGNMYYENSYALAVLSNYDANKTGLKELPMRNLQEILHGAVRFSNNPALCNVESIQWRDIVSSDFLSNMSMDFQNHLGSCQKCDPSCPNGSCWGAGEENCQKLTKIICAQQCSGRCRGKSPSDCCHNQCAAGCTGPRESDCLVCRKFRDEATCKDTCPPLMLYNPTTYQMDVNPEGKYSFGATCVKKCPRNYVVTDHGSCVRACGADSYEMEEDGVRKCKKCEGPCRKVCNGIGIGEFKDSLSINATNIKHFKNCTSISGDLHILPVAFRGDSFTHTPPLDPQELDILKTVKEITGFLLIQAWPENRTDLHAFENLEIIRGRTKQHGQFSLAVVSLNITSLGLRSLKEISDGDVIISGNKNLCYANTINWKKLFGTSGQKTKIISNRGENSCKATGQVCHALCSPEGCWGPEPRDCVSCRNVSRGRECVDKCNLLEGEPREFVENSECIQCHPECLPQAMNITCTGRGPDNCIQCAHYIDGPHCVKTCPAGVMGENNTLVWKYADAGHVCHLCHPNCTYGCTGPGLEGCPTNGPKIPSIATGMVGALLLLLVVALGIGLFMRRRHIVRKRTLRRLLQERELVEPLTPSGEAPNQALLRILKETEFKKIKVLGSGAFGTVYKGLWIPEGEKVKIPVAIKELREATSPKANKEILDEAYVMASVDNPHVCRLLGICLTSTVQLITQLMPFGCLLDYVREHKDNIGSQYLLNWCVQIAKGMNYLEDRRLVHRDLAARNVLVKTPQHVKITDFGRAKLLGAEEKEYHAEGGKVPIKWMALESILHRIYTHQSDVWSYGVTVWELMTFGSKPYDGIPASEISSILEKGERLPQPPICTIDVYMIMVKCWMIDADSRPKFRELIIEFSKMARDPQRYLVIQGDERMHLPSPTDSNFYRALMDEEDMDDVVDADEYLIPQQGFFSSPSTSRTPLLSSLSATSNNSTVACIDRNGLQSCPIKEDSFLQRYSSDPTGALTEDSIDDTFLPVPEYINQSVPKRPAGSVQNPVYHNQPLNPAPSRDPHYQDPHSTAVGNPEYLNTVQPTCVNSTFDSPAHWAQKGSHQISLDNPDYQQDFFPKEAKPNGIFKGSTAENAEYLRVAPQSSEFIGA

For the compound `NC(=O)c1cccc2cn(-c3ccc([C@@H]4CCCNC4)cc3)nc12` [Niraparib], the percent of control binding at 10 µM was 90% on EGFR(L747-T751del,Sins) (setting [2]); 86% on EPHA1 (setting [2]); 77% on SRPK1 (setting [2]); 70% at EGFR(L858R) (setting [2]); 74% at EGFR(G719S) (setting [2]); 83% at CDC2L2 (setting [2]). The percent of control binding at 10 µM on INSRR (setting [2]) stood at 92%; in experiment [1] (setting [2]), 82%; at CDK4-cyclinD1 (setting [2]), 82%; on PIM1 (setting [2]) it was 18%; on VEGFR2 (setting [2]), 77%.
As to `Cn1ncnc1[C@H]1c2n[nH]c(=O)c3cc(F)cc(c23)N[C@@H]1c1ccc(F)cc1` [Talazoparib], the percent of control binding at 10 µM is 89% on EGFR(L747-T751del,Sins) (setting [3]); 98% on EPHA1 (setting [3]); 100% on SRPK1 (setting [3]); 97% on EGFR(L858R) (setting [3]); 99% at EGFR(G719S) (setting [3]); 100% on CDC2L2 (setting [3]). The percent of control binding at 10 µM on INSRR (setting [3]) was 100%; in experiment [1] (setting [3]), 93%; at CDK4-cyclinD1 (setting [3]) it was 70%; on PIM1 (setting [3]), 95%; at VEGFR2 (setting [3]), 100%.
As to `CNCc1ccc(-c2[nH]c3cc(F)cc4c3c2CCNC4=O)cc1` [Rucaparib], the percent of control binding at 10 µM stood at 86% at EGFR(L747-T751del,Sins) (setting [4]); 99% at EPHA1 (setting [4]); 97% on SRPK1 (setting [4]); 96% at EGFR(L858R) (setting [4]); 89% on EGFR(G719S) (setting [4]); 88% on CDC2L2 (setting [4]). Further, the percent of control binding at 10 µM was found to be 95% at INSRR (setting [4]); 70% in experiment [1] (setting [4]); 25% on CDK4-cyclinD1 (setting [4]); 2.8% on PIM1 (setting [4]); 98% at VEGFR2 (setting [4]).
As for `O=C(c1cc(Cc2n[nH]c(=O)c3ccccc23)ccc1F)N1CCN(C(=O)C2CC2)CC1` [Olaparib], the percent of control binding at 10 µM at EGFR(L747-T751del,Sins) (setting [5]) was 81%; on EPHA1 (setting [5]), 92%; on SRPK1 (setting [5]), 98%; at EGFR(L858R) (setting [5]), 92%; at EGFR(G719S) (setting [5]) it was 94%; on CDC2L2 (setting [5]), 100%. The percent of control binding at 10 µM came to 100% on INSRR (setting [5]); 78% in experiment [1] (setting [5]); 80% on CDK4-cyclinD1 (setting [5]); 96% on PIM1 (setting [5]); 95% on VEGFR2 (setting [5]).
